What was measured:
Type in all cases: in vivo
seeds = test: Seed treatment observations with CPPA, iron-removed CPPA and Fe; details: treating seeds with Fe alone
From the text: These observations support the premise that the combination of CPPA and Fe are synergistic in their interaction and biological effect on plants and/or seeds.

[1] = test system: tomato plants (Lycopersicon es.); test: Experiment Fe-4: addition of low levels of iron to CPPA, foliar application; details: for Leaf # / Plt. Ht. / Plt. Wt. / Root Wt. / Shoot Wt. / Vigor: foliar
From the text: Experiment Fe-4: The purpose of this experiment was to determine if the addition of low levels of iron to a CPPA sample containing lower than typical amounts of iron (e.g., Fe/TOC=0.135) would increase the biological response of plants. Nominal Fe/TOC ratios for CPPA range from 0.10 to 0.28 but the optimum ratio for “as-is” samples of CPPA, as determined in the previous experiments, is between 0.2 and 0.25. Thus, for this experiment, non-agrochemically effective amounts of iron were combined with CPPA samples. Tomato plants (Lycopersicon es.) were produced from seed and transplanted into 3 inch by 3 inch pots. There were 16 treatments plus an untreated check with 20 replicates per treatment arranged in a Randomized Complete Block design. Pots were treated with water (UTC), or CPPA only (3 different rates), Fe only (3 different rates), or CPPA and Fe at each of the rates. The CPPA rates corresponded to 260, 520, and 1040 mg organic carbon (TOC) per hectare and the Fe rates corresponded to 130, 260, and 520 mg Fe per hectare. All pots were treated by foliar application immediately after transplanting. Ten days after the application, ten of the plants were harvested and assessed for vigor, leaf number, plant height, plant weight, root weight, and shoot weight. […] Additional application rates of CPPA and Fe were evaluated with similar synergistic results observed for the combination of CPPA with amounts of iron. Twenty days after transplanting, the remaining ten plants in each treatment were assessed.

[2] = test system: tomato plants (Lycopersicon es.); test: Experiment Salt-2: foliar treatment of CPPA/salt formulations; details: ten and twenty day assessments averaged
Protocol: There were a total of 8 treatments plus an untreated check, with 20 replicates per treatment arranged in a randomized block design. Aqueous solutions of CPPA (1000 mg TOC/L) and salt (5000 mg/L) were used for this experiment and all plants were treated with a foliar application at the time they were transplanted into the pots. Each treatment contained CPPA alone, salt alone, or CPPA plus salt. Two rates of CPPA were used; the first was equivalent to 260 mg of TOC per hectare and a second equivalent to 1040 mg of TOC per hectare. […] All treatments were diluted with water to provide a final spray volume equivalent to 208 lit per hectare, applied with a spray bottle, with just enough spray solution to wet the leaf surface of each plant. Ten days after applications, ten each of the plant samples in each treatment were assessed for vigor, leaf number, plant height, plant weight, root weight, and shoot weight. Assessments were repeated at twenty days with the remaining ten plants of each treatment and the results were averaged. FIG. 17 depicts observed vigor, leaf number, plant height, plant weight, root weight, and shoot weight results for treatments to the tomato plants with 0 mg and 260 mg CPPA/ha application rate with variable salt application rates, which are also summarized in Table 4.

[3] = test system: tomato plants (Lycopersicon es.); test: Experiment Salt-1: CPPA/NaCl composition, foliar application
Protocol: Experiment Salt-1: […] There were a total of 5 treatments plus an untreated check, each with 10 replicates per treatment arranged in a randomized block design. […] Each treatment comprised samples treated with CPPA alone, salt alone, or CPPA plus salt. Two rates of CPPA were used; the first was equivalent to 520 mg of TOC per hectare and a second equivalent to 1040 mg of TOC per hectare. Salt was applied at a rate equivalent to 2.6 g of salt per hectare. All treatments were diluted with water to provide a final spray volume equivalent to 208 lit per hectare, made with a spray bottle, with just enough spray solution to wet the leaf surface of each plant. Ten days after treatment the plants were assessed for vigor, leaf number, plant height, plant weight, root weight, shoot weight, and leaf conductance using a SPAD meter and are summarized in Table 8 and depicted in FIGS. 10-16.

[4] = test system: wheat seeds (Triticum aestivum); test: Experiment Salt-3: soil treatments of CPPA/salt formulations; details: soil drench, 28 days after treatment
Protocol: For this experiment, wheat seeds (Triticum aestivum) were planted in small pots, approximately 1 inch in diameter and an inch in depth. There were a total of 8 treatments plus an untreated check, with 20 replicates per treatment arranged in a randomized block design. […] Treatments contained CPPA alone, salt alone, or CPPA plus salt. Two rates of CPPA were used; the first was equivalent to 520 mg of TOC per hectare and a second equivalent to 1040 mg of TOC per hectare. […] Twenty eight days after treatment the plants were assessed for plant weight, root weight, and shoot weight. FIG. 19 depicts plant weight, root weight, and shoot weight results for treatments with 520 mg CPPA/ha in combination with varying salt rates, which are summarized in Table 12.

[5] = CPPA 260 mg TOC/ha and/or Fe 130 mg Fe/ha (FeSO4), second assessment, 20 days after application
[6] = CPPA 520 mg TOC/ha and/or Fe 130 mg Fe/ha (FeSO4), 20 days after application
[7] = CPPA 1040 mg TOC/ha and/or Fe 520 mg Fe/ha (FeSO4), first assessment, 10 days after application
[8] = CPPA 1040 mg TOC/ha and/or Fe 520 mg Fe/ha (FeSO4), second assessment, 20 days after application
[9] = CP 1040 mg/ha and/or NaCl 1300 mg/ha
[10] = NaCl 2600 mg/ha alone or with CP 1040 mg/ha
[11] = CPPA 520 mg TOC/ha and/or NaCl 2600 mg/ha, ten days after treatment
[12] = CP 520 mg/ha and/or NaCl 1300 mg/ha
[13] = CP 1040 mg TOC/ha and/or NaCl 1300 mg/ha
[14] = NaCl 2600 mg/ha alone or with CP 520 mg/ha
[15] = NaCl 2600 mg/ha alone or with CP 1040 mg TOC/ha

O=S(=O)([O-])[O-].[Fe+2] [Fe, FeSO4]
root development and shoot development (seeds): negative effect on root development and on shoot development
Leaf # [1, 5]: 6.3 ab
Plt. Ht. [1, 5]: 6.4 abc
Plt. Wt. [1, 5]: 6.4 c
Root Wt. [1, 5]: 3.0 c
Shoot Wt. [1, 5]: 3.4 cd
Vigor [1, 5]: 2.1 c
Leaf # [1, 6]: 6.3 ab
Plt. Ht. [1, 6]: 6.4 ab
Plt. Wt. [1, 6]: 6.4 b
Root Wt. [1, 6]: 3.0 b
Shoot Wt. [1, 6]: 3.4 ab
Vigor [1, 6]: 2.1 c
Leaf # [1, 7]: 6.6 ab
Plt. Ht. [1, 7]: 4.2 b
Plt. Wt. [1, 7]: 4.9 b
Root Wt. [1, 7]: 1.4 bc
Shoot Wt. [1, 7]: 3.6 b
Vigor [1, 7]: 3.8 b
Leaf # [1, 8]: 5.1 b
Plt. Ht. [1, 8]: 6.3 b
Plt. Wt. [1, 8]: 4.5 b
Root Wt. [1, 8]: 1.6 bc
Shoot Wt. [1, 8]: 2.9 cd
Vigor [1, 8]: 2.5 c
biological effect on plant, root and shoot weights relative to UTC ([1]; high application rate of CPPA alone or of Fe alone, FIG. 9F, Table 4): apparent slightly negative biological effect on the plant, root and shoot weights, although it was not statistically significant

[Cl-].[Na+] [NaCl]
Leaf # [2, 9]: 4.7 de
Plt. Ht. [2, 9]: 4.7 cd inches
Plt. Wt. [2, 9]: 3.7 d grams
Root Wt. [2, 9]: 1.4 cd grams
Shoot Wt. [2, 9]: 2.3 e grams
Vigor (1-5) [2, 9]: 2.9 de
Leaf # [2, 10]: 4.1 f
Plt. Ht. [2, 10]: 4.1 e inches
Plt. Wt. [2, 10]: 3 de grams
Root Wt. [2, 10]: 1.0 d grams
Shoot Wt. [2, 10]: 2.0 ef grams
Vigor (1-5) [2, 10]: 2.2 g
Leaf # [3, 11]: 5.3 e
Plt. Ht. [3, 11]: 3.5 b
Plt. Wt. [3, 11]: 2.7 c
Root Wt. [3, 11]: 0.8jc
SPAD (leaf conductance using a SPAD meter) [3, 11]: 24.2 b
Shoot Wt. [3, 11]: 2.0 c
Vigor [3, 11]: 2.4 b
phytotoxicity of salt and its mitigation ([3]; Table 8, ten days): expected poorest results, indicating a significant amount of phytotoxicity
Plt. Wt. [4, 12]: 2.1cd
Root Wt. [4, 12]: 0.4bc
Shoot Wt. [4, 12]: 1.8c
Plt. Wt. [4, 13]: 2.1de
Root Wt. [4, 13]: 0.4cd
Shoot Wt. [4, 13]: 1.8 days
Plt. Wt. [4, 14]: 2 days
Root Wt. [4, 14]: 0.3cd
Shoot Wt. [4, 14]: 1.7c
Plt. Wt. [4, 15]: 2e
Root Wt. [4, 15]: 0.3de
Shoot Wt. [4, 15]: 1.7 days

From patent US12193442B2, “Modulation of plant biology” (FBSCIENCES HOLDINGS, INC., priority 2012, dated 2025)
